Consider 16 compounds from PubChem BioAssay (NCI).

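Cultured in 96-well plates, cells were exposed to test compound for 48 hours across five concentrations. GI50 marks 50% less growth. TGI denotes the concentration required for complete inhibition of growth.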 Bounds are passed on as bounds.

Among the test systems are MDA-MB-231 breast; SR leukemia; NCI-H460 lung; HCT-116 colon; RPMI-8226 leukemia; 786-0 renal; HCC-2998 colon; MALME-3M melanoma; CCRF-CEM leukemia.
Common to all, as to experiment: inhibition of tumour cell growth, NCI panel, 48 h

For the compound `C[C@]12CC/C(=N\O)C[C@@H]1CC[C@@H]1[C@@H]2CC[C@]2(C)/C(=N/O)CC[C@@H]12`, the GI50 in the assay on MDA-MB-231 breast is 26 µM; with SR leukemia it was 35 µM; in the assay on NCI-H460 lung it was 34.2 µM; with HCT-116 colon, 23.3 µM; in the assay on RPMI-8226 leukemia, 15.9 µM; in the assay on 786-0 renal, 26.7 µM. Also, the TGI with MDA-MB-231 breast is 73.8 µM; with SR leukemia, above 100 µM; in the assay on NCI-H460 lung it was above 100 µM; in the assay with HCT-116 colon, 58.5 µM; in the assay on RPMI-8226 leukemia, 52 µM; in the assay with 786-0 renal, 72.3 µM.
Consider `CC[C@@]1(O)C(=O)OCc2c1cc1n(c2=O)Cc2cc3c([N+](=O)[O-])c(O)ccc3nc2-1`, for which the GI50 in the assay with HCC-2998 colon is 2.02 µM; in the assay with MALME-3M melanoma, 1.06 µM; in the assay on NCI-H460 lung, 0.053 µM; in the assay on HCT-116 colon it was 0.431 µM; in the assay with CCRF-CEM leukemia, below 0.026 µM; in the assay with RPMI-8226 leukemia, 0.848 µM. Besides, the GI50 in the assay on 786-0 renal is 0.0477 µM. In addition, the TGI in the assay with HCC-2998 colon was 13.1 µM; in the assay with MALME-3M melanoma, 12.7 µM; with SR leukemia, below 0.0215 µM; in the assay on NCI-H460 lung it was 1.14 µM; in the assay on HCT-116 colon it was 7.11 µM; with CCRF-CEM leukemia it was 0.469 µM. In addition, the values for the TGI in the assay on RPMI-8226 leukemia and with 786-0 renal were 9.39 µM and 0.432 µM, respectively.
Regarding `Cc1cc(Cl)ccc1NC(=O)C1C(=O)C(=O)N(c2ccc(Cl)cc2C)C1=O` (configuration not stated), the TGI in the assay on HCC-2998 colon, in the assay with MALME-3M melanoma, with HCT-116 colon, in the assay with CCRF-CEM leukemia, with RPMI-8226 leukemia and in the assay on 786-0 renal was above 100 µM in each case.
Take `[O-]c1ccccc1[C-]=Nc1ccccc1O.[O-]c1ccccc1[C-]=Nc1ccccc1O.[O]=[U]=[O]`: the GI50 was 12.8 µM in the assay with MALME-3M melanoma; 14.5 µM in the assay on NCI-H460 lung; 2.6 µM in the assay on CCRF-CEM leukemia; 1.59 µM with RPMI-8226 leukemia; 13.1 µM in the assay on 786-0 renal. In addition, the TGI with MALME-3M melanoma is 30.1 µM; in the assay with NCI-H460 lung it was 41.2 µM; in the assay on CCRF-CEM leukemia it was 44.4 µM; with RPMI-8226 leukemia, 49.5 µM; in the assay on 786-0 renal it was 35.9 µM.
Consider `O=c1/c(=C/c2ccccc2O)sc2nc3ccccc3n12`, for which the TGI is above 100 µM with HCC-2998 colon; above 100 µM in the assay on MALME-3M melanoma; 61.3 µM in the assay on SR leukemia; above 100 µM in the assay on NCI-H460 lung; above 100 µM in the assay with HCT-116 colon; 45.6 µM with CCRF-CEM leukemia. Besides, the TGI in the assay on RPMI-8226 leukemia is 64.9 µM; with 786-0 renal it was above 100 µM.
As for `COC(=O)c1ccc(CS(=O)(=O)c2ccccc2)cc1`, the TGI in the assay with HCC-2998 colon, with MALME-3M melanoma, with SR leukemia, with NCI-H460 lung, in the assay with HCT-116 colon and in the assay on CCRF-CEM leukemia was above 100 µM throughout. Moreover, the TGI in the assay on RPMI-8226 leukemia and with 786-0 renal was above 100 µM in each case.
With `CC1(OCc2ccccc2)C(=O)N2C1N(C(=O)OCc1ccccc1)CC2(C)C` (configuration not stated), the TGI is above 100 µM in the assay on HCC-2998 colon; above 100 µM in the assay on MALME-3M melanoma; 95 µM in the assay with SR leukemia; above 100 µM in the assay on NCI-H460 lung; above 100 µM in the assay on HCT-116 colon; above 100 µM in the assay on CCRF-CEM leukemia. The TGI with RPMI-8226 leukemia is 95.7 µM; in the assay on 786-0 renal, above 100 µM.
Regarding `CC(=O)CC(=O)ON(C)C(C)=O`, the TGI in the assay on HCC-2998 colon, in the assay on MALME-3M melanoma, in the assay on SR leukemia, with NCI-H460 lung, in the assay on HCT-116 colon and with CCRF-CEM leukemia was above 100 µM in each case. The TGI in the assay on RPMI-8226 leukemia and in the assay with 786-0 renal was above 100 µM throughout.
As to `O=C1C2c3[nH]c4ccccc4c3C3CCC(c4ccccc4)CC3C2C(=O)N1c1ccccc1` (configuration not stated), the TGI in the assay with HCC-2998 colon, in the assay with MALME-3M melanoma, in the assay with SR leukemia, in the assay with NCI-H460 lung, in the assay with CCRF-CEM leukemia and with RPMI-8226 leukemia was above 100 µM in each case. Besides, the TGI in the assay on 786-0 renal is above 100 µM.
With `Clc1cc(Cl)cc(C2SCc3nc4ccccc4n32)c1` (configuration not stated), the TGI was 62.6 µM with MALME-3M melanoma; above 100 µM in the assay on SR leukemia; 29.3 µM with NCI-H460 lung; 70.6 µM in the assay on CCRF-CEM leukemia; 98.4 µM in the assay on RPMI-8226 leukemia; 32.4 µM in the assay on 786-0 renal.
Consider `COC1=CC(=O)c2c(O)c3c(c(O)c2C1=O)OC1(Oc2c(cc4cc(C)oc(=O)c4c2O)CC1O)C3O` (configuration not stated), for which the TGI in the assay with MDA-MB-231 breast is 54.5 µM; in the assay with HCC-2998 colon it was 63.8 µM; with MALME-3M melanoma, 10.3 µM; in the assay on SR leukemia, above 100 µM; with NCI-H460 lung, 67.8 µM; with HCT-116 colon it was above 100 µM. The TGI in the assay on CCRF-CEM leukemia, in the assay with RPMI-8226 leukemia and in the assay with 786-0 renal was above 100 µM throughout.
With `CCCCN1C(=O)C2c3[nH]c4ccccc4c3C3CCCCC3C2C1=O` (mixture of isomers), the TGI in the assay with HCC-2998 colon was found to be 62.4 µM; in the assay on NCI-H460 lung it was 31.2 µM; with HCT-116 colon it was 23.6 µM; with CCRF-CEM leukemia it was 37.5 µM; in the assay with 786-0 renal, 20.2 µM.
Consider `CC12CCC(=O)N1c1cc([N+](=O)[O-])ccc1N2` (configuration not stated), for which the TGI in the assay with MALME-3M melanoma, with SR leukemia, in the assay with HCT-116 colon, in the assay with CCRF-CEM leukemia, in the assay on RPMI-8226 leukemia and in the assay on 786-0 renal was above 100 µM in each case.
With `CN(C(=N)c1ccccc1)c1ccccc1`, the TGI in the assay on HCC-2998 colon, in the assay on HCT-116 colon, with CCRF-CEM leukemia, in the assay with RPMI-8226 leukemia and in the assay with 786-0 renal was above 100 µM in each case.
Regarding `Cc1ccc2oc(=O)cc(CC(=O)O)c2c1`, the TGI with HCC-2998 colon, in the assay on MALME-3M melanoma, in the assay on NCI-H460 lung, with HCT-116 colon, in the assay with CCRF-CEM leukemia and with RPMI-8226 leukemia was above 100 µM throughout. Further, the TGI with 786-0 renal was above 100 µM.
Consider `C[C@]12CC[C@H](OC(=O)Cc3ccc(N(CCCl)CCCl)cc3)CC1CC[C@@H]1C2CC[C@]2(C)NC(=O)CCC12` (some centres not stated), for which the TGI amounted to 34.8 µM in the assay with HCC-2998 colon; 35.7 µM with MALME-3M melanoma; 35.1 µM in the assay on NCI-H460 lung; 18.5 µM in the assay with HCT-116 colon; 18 µM in the assay on CCRF-CEM leukemia; 23 µM in the assay on RPMI-8226 leukemia. Further, the TGI in the assay with 786-0 renal amounted to 29 µM.
